In US5869031A, “Depigmenting dermatological and/or cosmetic composition” (priority 1995, dated 1999):

Legend:
[1] = UVA and UVB sunscreen activity, spectrophotometric study; type: physicochemical; conditions: extract titrated to 5% umbelliferone, Parsol MCX as comparison
[2] = Anti-radical activity on radical propagation (hydroxyl radicals), evaluated on DPHH; conditions: extract containing 5% umbelliferone; vitamin E as comparison
Description: Evaluation of the anti-radical activity
disappearance of the free radicals. Free radical traps act on the superoxide anion O2^- but also on the hydroxyl radicals. Thus, we have sought to evaluate the anti-radical activity on these two steps.
The activity on radical propagation, and thus on the hydroxyl radicals, is evaluated on DPHH, diphenyl-picrylhydrazyl hydrate, which is a stable, colored free radical.

Row | Compound | specific extension coefficient at 310 nm [1] | IC50 on DPHH (radical propagation, hydroxyl radicals) [2]
1 | CCCCC(CC)COC(=O)C=Cc1ccc(OC)cc1 (centres unmarked) [Parsol MCX] | 810 | –
2 | vitamin E | – | 6 µg/mL
